Tested on: human embryonic stem cell line H1
Assay: Real-time PCR of definitive endoderm markers, H1 on human serum or […] (Examples 30, 31, 35)
Assay type: cell-based
Details: for expression of definitive endoderm markers: H1 passage 55 on human serum coated plates, with activin A, vs activin A only
Method: Cultures of the human embryonic stem cell line H1 at passage 55 were grown and differentiated on human serum (Sigma, #H1388, MO) coated plates. 0.5 ml of human serum was added to each well of 6 well tissue culture treated dish, incubated for 1 hr at room temperature, and aspirated before adding human embryonic stem cells. After cells reached 80% confluency, they were treated as follows: 2 days 0.5% FBS containing 10 ng/ml mouse recombinant Wnt3a (R&D) or 100 nM GSK-3B inhibitor IX (Catalog #361550, Calbiochem, CA) and 100 ng/mlActivin A (R&D). This was followed by 3 days 2% FBS plus 100 ng/mlActivin A. Cultures were then analyzed by real-time PCR (FIG. 46, panels a & b). […] These findings parallel our findings for human embryonic stem cells cultured on […]™ or human fibronectin coated plates.
The effectiveness of a number of commercially available GSK-3B inhibitors was evaluated in formation of DE from human embryonic stem cells. The following GSK-3B inhibitors were evaluated at 100 nM: GSK-3B inhibitor VIII (Catalog #361549, Calbiochem, CA), GSK-3B inhibitor IX (Catalog #361550, Calbiochem, CA), GSK-3B inhibitor XI (Catalog #361553, Calbiochem, CA), GSK-3B inhibitor XII (Catalog #361554, Calbiochem, CA). […] Control cultures were treated with low serum plus high dose of AA. FIG. 47, panels a and b depicts the gene expression of definitive endoderm markers at day 5. GSK-3B inhibitor IX and XI were both effective in inducing DE formation as compared to GSK-3B inhibitor VIII and XII.
The following combinations of WNT1+AA were tested:
a) 20 ng/ml of WNT1+100 ng/ml AA in 0.5% FBS+DM-F12 for days 1-2 followed by 2% FBS+DM-F12+100 ng/ml AA for day three, b) 20 ng/ml of WNT1+100 ng/ml AA in 0.5% FBS+DM-F12 for days 1-2 followed by 2% FBS+DM-F12+100 ng/ml AA for days 3-5, c) 10 ng/ml of WNT1+100 ng/ml AA in 0.5% FBS+DM-F12 for days 1-2 followed by 2% FBS+DM-F12+100 ng/ml AA for day three, d) 10 ng/ml of WNT1+100 ng/ml AA in 0.5% FBS+DM-F12 for days 1-2 followed by 2% FBS+DM-F12+100 ng/ml AA for days 3-5, e) 20 ng/ml of WNT1+100 ng/ml AA in 0.5% FBS+DM-F12 for days 1-2 followed by 2% FBS+DM-F12+100 ng/ml AA+20 ng/ml of WNT1 for day three, f) 20 ng/ml of WNT1+100 ng/ml AA in 0.5% FBS+DM-F12 for days 1-2 followed by 2% FBS+DM-F12+100 ng/ml AA+20 ng/ml of WNT1 for days 3-5.

Molecule	inducing DE formation (H1P54 on MATRIGEL, 100 nM for first two days, compared to GSK-3B inhibitor VIII and XII)	expression of definitive endoderm markers
O=C1Nc2cc(Br)ccc2/C1=C1/Nc2ccccc2/C1=N\O [GSK-3B inhibitor IX, reference compound]	effective	Robust expression
Wnt-3a		Robust expression

From patent US20100255580A1, “Differentiation of Human Embryonic Stem Cells” (LIFESCCAN, INC., priority 2007, published 2010)
